Source: publication PMC12150283, “Synthesis of new Ag(I) and Cd(II) hydrozanomide-based complexes with antibacterial and anticancer properties” (RSC Advances, 2025)

What was measured:
[1] = system: Bacillus cereus ŁOCK 0807; assay: MIC determination; type: cell-based; settings: Bacillus cereus ŁOCK 0807; 18 h
Method: (§1) The antibacterial activity of tested samples was assessed against both gram-positive bacteria (Staphylococcus aureus ATCC 25923, Staphylococcus aureus ATCC 6538, Staphylococcus epidermidis ATCC 12228, Enterococcus faecalis ATCC 29212, Listeria monocytogenes ATCC 19115, Bacillus subtilis ATCC 6633, Bacillus cereus ATCC 10876) and gram-negative bacteria (Escherichia coli ATCC 10530, Salmonella typhimurium ATCC 14028). Antibacterial properties were evaluated using both the dilution method (employing DMSO and 96-well plates) and the diffusion-well method (using Mueller Hinton Agar, Merck, Germany).
(§2) The minimum inhibitory concentrations (MICs) of the tested samples were evaluated against a panel of reference microorganisms obtained from the American Type Culture Collection (ATCC), including Gram-negative bacteria (Escherichia coli ATCC 10530, Salmonella typhimurium ATCC 14028), and Gram-positive bacteria (Staphylococcus aureus ATCC 25923, Staphylococcus aureus ATCC 6538, Staphylococcus epidermidis ATCC 12228, Enterococcus faecalis ATCC 29212, Listeria monocytogenes ATCC 19115, Bacillus subtilis ATCC 6633), and one strain (Bacillus cereus ŁOCK 0807) obtained from the Pure Culture of Industrial Microorganisms of the Institute of Fermentation Technology and Microbiology ŁOCK 105 (Łódź, Poland).
(§3) The microorganism cultures with a density of 1.5 × 10^8 CFU mL^−1 (corresponding to a McFarland standard of 0.5) were plated on Mueller–Hinton Agar (Merck, Germany) following the procedures recommended by the European Committee on Antimicrobial Susceptibility Testing (EUCAST).[47] Wells measuring 10 mm in diameter were cut into the medium. The tested compounds were dissolved in a DMSO solution, which was recommended due to their chemical structures. Subsequently, 100 μL of prepared solutions containing the tested compounds at concentrations ranging from x μg mL^−1 to x μg mL^−1 were added to each well. The plates were incubated at 30 °C (for Bacillus subtilis and Bacillus cereus) or 37 °C (for other bacteria) for 18 hours. After incubation, the minimum inhibitory concentration (MIC value) was determined (the lowest concentration of the tested compounds that prevents bacterial growth) and expressed in μg mL^−1. The experiment was conducted in three independent replicates. Ciprofloxacin (Sigma Aldrich, Saint Louis, MO, USA) was used as a reference antimicrobial agent against Gram-negative bacteria, while vancomycin (Sigma Aldrich, Saint Louis, MO, USA) was used as a reference antimicrobial agent against Gram-positive bacteria.

[2] = system: Bacillus subtilis ATCC 6633; assay: MIC determination; type: cell-based; settings: 18 h
Method: as §1, §2, §3

[3] = system: Enterococcus faecalis ATCC 29212; assay: MIC determination; type: cell-based; settings: E. faecalis ATCC 29212; 18 h
Method: as §1, §2, §3

[4] = system: Escherichia coli ATCC 10530; assay: MIC determination; type: cell-based; settings: Escherichia coli ATCC 10530; 18 h
Method: as §1, §2, §3

[5] = system: Listeria monocytogenes ATCC 19115; assay: MIC determination; type: cell-based; settings: Listeria monocytogenes ATCC 19115; 18 h
Method: as §1, §2, §3

[6] = system: Salmonella typhimurium ATCC 14028; assay: MIC determination; type: cell-based; settings: S. typhimurium ATCC 14028, 18 h
Method: as §1, §2, §3

[7] = system: Staphylococcus aureus ATCC 25923; assay: MIC determination; type: cell-based; settings: S. aureus ATCC 25923, 18 h
Method: as §1, §2, §3

[8] = system: Staphylococcus aureus ATCC 6538; assay: MIC determination; type: cell-based; settings: S. aureus ATCC 6538; 18 h
Method: as §1, §2, §3

[9] = system: Staphylococcus epidermidis ATCC 12228; assay: MIC determination; type: cell-based; settings: S. epidermidis ATCC 12228; 18 h
Method: as §1, §2, §3

[10] = system: L. monocytogenes ATCC 19115; assay: Diffusion-well method, inhibition zones; type: cell-based, Listeria monocytogenes; settings: 500 µg/mL, wells 10 mm
Method: as §1
(§4) 24 hour bacterial cultures with a density of 1–2 × 10^8 CFU mL^−1 were plated (0.1 mL) on Mueller–Hinton Agar (Merck, Germany). Subsequently, wells with a diameter of 10 mm were cut out from and filled with 100 μL of the tested compound at a concentration of 10–500 μg mL^−1 (diluted in DMSO). After an 18-hour incubation at either 30 °C (for Bacillus ssp.) or 37 °C (for other tested microorganisms), the inhibition zones around the wells were measured, and the results were expressed in millimetres (Table S9 ^†).

[11] = system: S. Typhimurium ATCC 14028; assay: Diffusion-well method, inhibition zones; type: cell-based, Salmonella typhimurium; settings: 500 µg/mL, wells 10 mm
Method: as §1, §4

Q: How did the MIC [1] turn out when NC(=NN=Cc1ccccc1)c1cncc(Cl)n1.O.O=[N+]([O-])[O-].[Ag+] [Complex 1, AgL1NO3 × H2O] was run?
A: 50 µg/mL

Q: And the MIC [2]?
A: 50 µg/mL

Q: What about the MIC [3] of the same molecule?
A: 50 µg/mL

Q: What about the MIC [4] of the same molecule?
A: < 10 µg/mL

Q: And the MIC [5]?
A: < 10 µg/mL

Q: And the MIC [6]?
A: < 10 µg/mL

Q: And the MIC ([6]; listed as 1)?
A: <10 µg/mL

Q: What about the MIC [7] of the same molecule?
A: < 10 µg/mL

Q: And the MIC ([7]; listed as 1)?
A: <10 µg/mL

Q: And the MIC [8]?
A: < 10 µg/mL

Q: And the MIC [9]?
A: 10 µg/mL

Q: And the Inhibition zone [10]?
A: 19 mm

Q: And the Inhibition zone [11]?
A: 17 mm
